One experiment relates to solid tumors. Particulars: from Oltersdorf, Nature 435: 677-681, 2005; cited from earlier work.
For experiment [1], the system named is SCLC and lymphoma cell lines. Particulars: from Oltersdorf, Nature 435: 677-681, 2005; cited from earlier work.
The test system of the next experiment is H69AR. The experiment is described as follows: sensitivity of SCLC cell line to ABT-737. Particulars: Homo sapiens, read-out: sensitivity to ABT-737 (EC50 class). The experiment is classed as cell-based. The protocol: (§1) The following SCLC cell lines were obtained from ATCC (Manassis, Va.): NCI-H889, NCI-H1963, NCI-H1417, NCI-H146, NCI-H187, DMS53, NCI-H510, NCI-H1209, NCI-H526, NCI-H211, NCI-H345, NCI-H524, NCI-H69, NCI-H748, DMS79, NCI-H711, SHP77, NCI-446, NCI-H1048, NCI-H82, NCI-H196, SW1271, H69AR. All cells were cultured in the ATCC recommended media at 37° C. in a humidified atmosphere containing 5% CO2. Genomic DNA was isolated from the cell lines using a DNAeasy kit (Qiagen, Valencia, Calif.).
(§2) The 23 SCLC cell lines were tested for sensitivity to ABT-737 using the procedure described in Oltersdorf, T., “An inhibitor of Bcl-2 family proteins induces regression of solid tumours”, Nature, 435: 677-681, 2005, with a cell line classified as sensitive if its EC50<1 μM and as resistant if its EC50>10 μM. The sensitive cell line group consisted of NCI-H889, NCI-H1963, NCI-H1417, NCI-H146, NCI-H187, DMS 53, NCI-H510, NCI-H209, NCI-H526, NCI-H211, NCI-H345, and NCI-H524 and the resistant cell line group was comprised of NCI-H82, NCI-H196, SW1271, and H69AR.

The next experiment deals with NCI-H1417. The experiment is described as follows: sensitivity of SCLC cell line to ABT-737. Type of experiment: cell-based. The conditions noted are these: Homo sapiens, read-out: sensitivity to ABT-737 (EC50 class). The method, then:
as §1, §2

A further experiment concerns NCI-H82. The experiment is described as follows: sensitivity of SCLC cell line to ABT-737. The experiment is classed as cell-based. Particulars: Homo sapiens, read-out: sensitivity to ABT-737 (EC50 class). The method, then: as §1, §2
The next experiment concerns NCI-H211. As to the kind of experiment: sensitivity of SCLC cell line to ABT-737. The experiment is classed as cell-based. The conditions noted are these: Homo sapiens, read-out: sensitivity to ABT-737 (EC50 class). The protocol: as §1, §2
The subject of a further experiment is DMS 53. The experiment is described as follows: sensitivity of SCLC cell line to ABT-737. Particulars: Homo sapiens; DMS 53 SCLC cell line; read-out: sensitivity to ABT-737 (EC50 class). Type of experiment: cell-based. The protocol: as §1, §2
Another experiment has as its system SW1271. The experiment is described as follows: sensitivity of SCLC cell line to ABT-737. The conditions noted are these: Homo sapiens, read-out: sensitivity to ABT-737 (EC50 class). The experiment is classed as cell-based. The method, then: as §1, §2
Another experiment has as its system NCI-H524. The experiment is described as follows: sensitivity of SCLC cell line to ABT-737. Particulars: Homo sapiens, read-out: sensitivity to ABT-737 (EC50 class). Type of experiment: cell-based. The protocol: as §1, §2
The next experiment concerns NCI-H510. The experiment is described as follows: sensitivity of SCLC cell line to ABT-737. The experiment is classed as cell-based. The conditions noted are these: Homo sapiens, read-out: sensitivity to ABT-737 (EC50 class). The method, then:
as §1, §2

The next experiment relates to NCI-H146. As to the kind of experiment: sensitivity of SCLC cell line to ABT-737. Particulars: Homo sapiens, read-out: sensitivity to ABT-737 (EC50 class). Type of experiment: cell-based. The protocol: as §1, §2
A further experiment relates to NCI-H889. The experiment is described as follows: sensitivity of SCLC cell line to ABT-737. The experiment is classed as cell-based. Particulars: Homo sapiens, read-out: sensitivity to ABT-737 (EC50 class). The method, then:
as §1, §2

For another experiment, the system named is NCI-H526. The experiment is described as follows: sensitivity of SCLC cell line to ABT-737. The experiment is classed as cell-based. The conditions noted are these: Homo sapiens, read-out: sensitivity to ABT-737 (EC50 class). The method, then:
as §1, §2

The next experiment deals with NCI-H196. The experiment is described as follows: sensitivity of SCLC cell line to ABT-737. Type of experiment: cell-based. Particulars: Homo sapiens, read-out: sensitivity to ABT-737 (EC50 class). The protocol: as §1, §2
Another experiment concerns NCI-H209. The experiment is described as follows: sensitivity of SCLC cell line to ABT-737. Type of experiment: cell-based. Particulars: Homo sapiens, read-out: sensitivity to ABT-737 (EC50 class). The protocol: as §1, §2
The next experiment concerns NCI-H1963. As to the kind of experiment: sensitivity of SCLC cell line to ABT-737. Type of experiment: cell-based. Particulars: Homo sapiens, read-out: sensitivity to ABT-737 (EC50 class). The protocol:
as §1, §2

A further experiment deals with NCI-H345. The experiment is described as follows: sensitivity of SCLC cell line to ABT-737. Particulars: Homo sapiens, read-out: sensitivity to ABT-737 (EC50 class). The experiment is classed as cell-based. The protocol: as §1, §2
Another experiment has as its system NCI-H187. The experiment is described as follows: sensitivity of SCLC cell line to ABT-737. Type of experiment: cell-based. Particulars: Homo sapiens, read-out: sensitivity to ABT-737 (EC50 class). The method, then:
as §1, §2

As to `CN(C)CC[C@H](CSc1ccccc1)Nc1ccc(S(=O)(=O)NC(=O)c2ccc(N3CCN(Cc4ccccc4-c4ccc(Cl)cc4)CC3)cc2)cc1[N+](=O)[O-]` [ABT-737, N-(4-(4-((4′-chloro(1,1′-biphenyl)-2-yl)methyl)piperazin-1-yl)benzoyl)-4-(((1R)-3-(dimethylamino)-1-((phenylsulfanyl)methyl)propyl)amino)-3-nitrobenzenesulfonamide], in the experiment on solid tumors, the “effect on solid tumors” value is recorded as “induce regression of solid tumors”. Besides, the “potency against a diverse panel of human cancer cell lines” value in [1] is “selective potency against SCLC and lymphoma cell lines”. Besides, the EC50 is more than 10000 nM with H69AR; less than 1000 nM in the experiment on NCI-H1417; more than 10000 nM in the experiment on NCI-H82; less than 1000 nM in the experiment with NCI-H211; less than 1000 nM in the experiment on DMS 53; more than 10000 nM in the experiment with SW1271. Besides, the 50% effective concentration (EC50) with NCI-H524 is less than 1000 nM; in the experiment on NCI-H510, less than 1000 nM; with NCI-H146, less than 1000 nM; in the experiment on NCI-H889, less than 1000 nM; in the experiment with NCI-H526, less than 1000 nM; with NCI-H196, more than 10000 nM. Besides, the concentration giving a half-maximal response (EC50) with NCI-H209, in the experiment on NCI-H1963, in the experiment on NCI-H345 and in the experiment on NCI-H187 was less than 1000 nM throughout.

Usually EC50 stands for the concentration giving half of the maximal effect.

The values are drawn from patent US20080193943A1, “Companion diagnostic assays for cancer therapy” (ABBOTT LABORATORIES, priority 2006, published 2008).
